This note sets out measurements from article PMC2243256 (Applied Microbiology and Biotechnology, 2008).

The target in this experiment is T1, PuORh (putrescine oxidase) (Rhodococcus erythropolis, UniProt B0F9F6).
T1 sequence (B0F9F6 1-453): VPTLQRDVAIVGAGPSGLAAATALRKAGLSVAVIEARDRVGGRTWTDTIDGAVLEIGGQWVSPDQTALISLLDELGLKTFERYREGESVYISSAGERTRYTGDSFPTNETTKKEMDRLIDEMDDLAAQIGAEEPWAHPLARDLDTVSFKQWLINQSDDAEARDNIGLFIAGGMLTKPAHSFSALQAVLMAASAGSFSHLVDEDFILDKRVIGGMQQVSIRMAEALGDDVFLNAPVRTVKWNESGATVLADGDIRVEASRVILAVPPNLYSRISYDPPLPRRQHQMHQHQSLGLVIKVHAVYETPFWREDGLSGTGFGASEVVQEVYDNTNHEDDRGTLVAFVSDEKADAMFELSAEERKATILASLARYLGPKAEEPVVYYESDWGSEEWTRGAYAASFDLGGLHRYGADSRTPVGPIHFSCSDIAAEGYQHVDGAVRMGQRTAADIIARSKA
As to the kind of experiment: absorbance spectrum, release by trichloroacetic acid and heat. It is filed as binding. As to conditions: non-covalent; pH 8.0, 25°C for spectra.

Regarding `Cc1cc2nc3c(=O)[nH]c(=O)nc-3n(C[C@H](O)[C@H](O)[C@H](O)COP(=O)(O)OP(=O)(O)OC[C@H]3O[C@@H](n4cnc5c(N)ncnc54)[C@H](O)[C@@H]3O)c2cc1C` [FAD], the “absorbance spectrum, release by trichloroacetic acid and heat” value was “the FAD cofactor in PuORh, like in PuOMr, is not covalently bound”.
